The text below walks through data of patent US10555909B2, “Microencapsulation of B-alanine” (INNOBIO CORPORATION LIMITED, priority 2015, dated 2020).

Several values for one entry are separate records, joined by “and”; a condition that tells them apart may be missing. Identical values can stand only once.

A short description of data set [1]: Size distribution of β-alanine before and after sustained-release microencapsulation. The class given is physicochemical.
Data set [2] is described as follows: Release rate experiment, USP <711> Dissolution, Apparatus 2, 50 rpm, delayed-release method B. The class given is physicochemical. As for the experimental part:
Regarding to the measurement to the release rate in the present invention, the release rate experiment in 0.1N hydrochloric acid solution and pH6.8 phosphate buffer is conducted referring to USP<711>DISSOLUTIO and using Apparatus 2 with a rotate speed of 50 rpm by DELAYED-RELEASE DOSAGE FORMS method B.

A short description of data set [3]: Tingling sensation evaluation after oral administration. In kind it is in vivo. Here is the method: The evaluation method of the tingling sensation in the present invention is that: a subject respectively administrates unsustained-release microencapsulated material containing a certain amount of β-alanine and sustained-release microencapsulated β-alanine. The time, intensity and duration of having the abnormal sensation are recorded.
The tingling sensation after oral administration of the β-alanine products A and D in Table 1 was evaluated according to a tingling sensation evaluation method, and an administration dosage, based on the β-alanine, is 22.8 mg/Kg (body weight).
In the tingling evaluation experiment in Table 5, the dosage of the subject was 45.7 mg/kg (body weight).

On to `NCCC(=O)O` [Product A, β-alanine], for which the “Dissolution in water (in words)” value is given as “easy to be dissolved in water”. In addition, in data set [1] (fraction 300-450 μm), the “Size distribution 300-450 μm” value was found to be 0%. Besides, in data set [1] (fraction 450-900 μm), the “Size distribution 450-900 μm” value stood at 43.7%. For the same compound, the “Size distribution 900-1000 μm” value in data set [1] (fraction 900-1000 μm) is given as 56.3%. In addition, in data set [2] (0.1N hydrochloric acid solution), the “Release in 0.1N hydrochloric acid solution (in words)” value was “quickly and completely released”. Besides, the “Release in pH6.8 phosphate buffer (in words)” value in data set [2] (pH6.8 phosphate buffer) was “quickly and completely released”. In data set [3] (22.8 mg/Kg body weight based on β-alanine, one value per subject, 0 no sensation, 1-5 acceptable, 6-10 unacceptable), the “Administration evaluation: Intensity” value was 6 (2×) and 7. For the same compound, in data set [3] (22.8 mg/Kg, per subject), the “Duration of the abnormal sensation (lasting for)” value is 45 min and lasting for 30 min. and 1 h; the “Time of having the abnormal sensation (onset)” value is 15 min and sensation in the hands, face and ears in 10 min, and 25 min.
